Like-named read-outs stand apart in the source and are kept apart here.
Legend:
[1] = Plasma pharmacokinetics of BMS-986142, SAD; type: in vivo; details: human, oral; for AUC(0-t): n = 6, read-out: AUC(0-T) geometric mean (%CV); for Cmax: n = 6, read-out: Cmax geometric mean (%CV)
Experimental: (§1) Eligible participants were confined to the clinical facility (WCCT Global, LLC, Cypress, CA) the day before dosing (day −1) and randomized to receive SAD or MAD treatment under fasting conditions for 10 h. In the SAD group, eight healthy non-Japanese participants were assigned to each of up to six sequential dose panels (single oral doses of 5, 15, 50, 100, 300, and 900 mg BMS-986142) or placebo. Within each dose panel, participants were randomized in a 3:1 ratio to receive BMS-986142 (n = 6) or placebo (n = 2). In the MAD group, eight healthy non-Japanese participants were assigned to each of four sequential dose panels (daily oral doses of 25, 75, 200, and 350 mg BMS-986142) or placebo. Within each dose panel, participants were randomized in a 3:1 ratio to receive once-daily (QD) doses of BMS-986142 or placebo from day 1 to day 14 (Online Resource 1). Escalation to the next dose level in SAD and MAD was conducted after safety assessment had been completed and the treatment was considered safe and well tolerated. Additionally, dose levels in MAD were selected not to exceed the steady-state exposure of BMS-986142 (AUC: 22,920 ng h/mL) at NOAEL in rats obtained from a 1-month GLP toxicology study.
(§2) Blood samples for the measurement of BMS-986142 were collected up to 168 h after dosing of BMS-986142 on day 1 for participants in SAD. In MAD, blood samples were collected up to 24 h on day 1 and up to 120 h on day 14 (the last day of treatment). Blood samples for the measurement of MTX were collected up to 48 h after dosing of MTX on days 1 and 8.
(§3) Plasma samples were analyzed for BMS-986142 levels with a validated method using liquid chromatography tandem mass spectrometry (LC-MS/MS) detection. The analyte was extracted from 50 μL of plasma using a liquid–liquid extraction method. Methyl tert-butyl ether was used as the extraction solvent. The lower limit of quantification (LLOQ) was 1.00 ng/mL in plasma. Plasma samples were analyzed for methotrexate levels using LC-MS/MS detection. Analytes were isolated from 50 μL plasma through solid phase extraction using Waters Oasis MAX, 10-mg, 96-well SPE plates. The final extract was analyzed using LC-MS/MS detection. LLOQ was 1.00 ng/mL in plasma. Detailed methodology quantitating the concentration level of BMS-986142 and MTX is provided in Online Resource 10.
(§4) Individual subject pharmacokinetic parameters for BMS-986142 and MTX were derived by a non-compartmental method using validated PK software (WinNonLin version 6.3; Pharsight Corporation, Mountain View, CA, USA). The following PK parameters for BMS-986142 and MTX were derived from plasma concentration versus time data: maximum observed plasma concentration (Cmax); minimum observed plasma concentration (Cmin); time to maximum observed plasma concentration (Tmax); area under the plasma concentration-time curve from time zero to the time of the last quantifiable concentration (AUC(0-T)), from time zero extrapolated to infinite time (AUC(inf)), and in one dosing interval (AUC(TAU)); terminal plasma half-life (T1/2); and AUC accumulation index (AI_AUC). AI_AUC was calculated to divide AUC(TAU) on day 14 by AUC(TAU) on day 1.
(§5) Summary statistics were tabulated for all PK parameters by treatment and study days. Geometric mean (Gmean) and coefficient of variation (CV) are presented for Cmax, AUC(0-T), AUC(inf), AI_AUC, Cmin, and AUC(TAU); arithmetic mean and standard deviation (SD) are presented for T1/2; and median and range are presented for Tmax. Dose proportionality was assessed using the previously described power model. Briefly, the simple linear regression was applied to the natural log of the PK parameters on the natural log of dose using the following equation (Eq. 1).1 ElogPKParameterDose=α+β∗logDose.
(§6) A slope (β) equal to 1 would indicate perfect dose proportionality. For each PK parameter (Cmax, AUC(0-T), AUC(TAU), and AUC(inf)), point estimates and 90% CI of the slopes were calculated.

[2] = Plasma pharmacokinetics of BMS-986142, MAD; type: in vivo, human; details: for AI_AUC geometric mean (%CV): MAD; for AI_AUC geometric mean (%CV) / AUC / Cmax / concentration at 14 day / Tmax / half-life: n = 6; for AUC / Cmax / concentration at 14 day / Tmax / half-life: human, plasma, oral; for AUC: read-out: AUC(TAU) geometric mean (%CV); for Cmax: read-out: Cmax geometric mean (%CV); for concentration at 14 day: read-out: Cmin geometric mean (%CV); for Tmax: read-out: Tmax median (min, max); for half-life: read-out: T1/2 mean (SD) (converted)
Experimental: as §1, §2, §3, §4, §5, §6

[3] = both sexes, MAD day 14, 25 mg QD

**Q.** Which results are given for `Cc1c(-c2c(F)cc(C(N)=O)c3[nH]c4c(c23)CC[C@H](C(C)(C)O)C4)cccc1-n1c(=O)c2cccc(F)c2n(C)c1=O` [BMS-986142, 6-fluoro-5-(R)-(3-(S)-(8-fluoro-1-methyl-2,4-dioxo-1,2-dihydroquinazolin-3(4H)-yl)-2-methylphenyl)-2-(S)-(2-hydroxypropan-2-yl)-2,3,4,9-tetrahydro-1H-carbazole-8-carboxamide]?
**A.** half-life ([1]; both sexes, 5 mg, at low dose levels, read-out: T1/2 (converted)): ~7 h; half-life ([1]; both sexes, at therapeutic doses, read-out: Mean T1/2): ≤ 11 h; half-life ([1]; both sexes, single dose, 5–900 mg dose range, read-out: Mean T1/2 (half-life), range over doses): 7 to 11 h; Tmax ([1]; both sexes, single dose, 5–900 mg dose range, read-out: Median Tmax (time of peak concentrations)): ≤ 2 h; half-life ([1]; 5 mg, SAD day 1, 5 mg, n = 5, read-out: T1/2 mean (SD) (converted)): 6.87 h; half-life ([1]; 15 mg, SAD day 1, 15 mg, n = 6, read-out: T1/2 mean (SD) (converted)): 8.02 h; half-life ([1]; 50 mg, SAD day 1, 50 mg, n = 6, read-out: T1/2 mean (SD) (converted)): 9.7 h; half-life ([1]; 100 mg, SAD day 1, 100 mg, n = 6, read-out: T1/2 mean (SD) (converted)): 10.3 h; half-life ([1]; 300 mg, SAD day 1, 300 mg, n = 6, read-out: T1/2 mean (SD) (converted)): 10.6 h; half-life ([1]; 900 mg, SAD day 1, 900 mg, n = 6, read-out: T1/2 mean (SD) (converted)): 10.7 h; AUC(0-inf) ([1]; SAD day 1, 5 mg, n = 5, read-out: AUC(inf) geometric mean (%CV)): 102 ng·h/mL; AUC(0-t) ([1]; SAD day 1, 5 mg): 83.1 ng·h/mL; Cmax ([1]; SAD day 1, 5 mg): 9.03 ng/mL; Tmax ([1]; SAD day 1, 5 mg, n = 6, read-out: Tmax median (min, max)): 2.03 h; AUC(0-t) ([1]; SAD day 1, 15 mg): 369 ng·h/mL; AUC(0-inf) ([1]; SAD day 1, 15 mg, n = 6, read-out: AUC(inf) geometric mean (%CV)): 388 ng·h/mL; Cmax ([1]; SAD day 1, 15 mg): 36.9 ng/mL; Tmax ([1]; SAD day 1, 15 mg, n = 6, read-out: Tmax median (min, max)): 2 h; AUC(0-t) ([1]; SAD day 1, 50 mg): 1560 ng·h/mL; AUC(0-inf) ([1]; SAD day 1, 50 mg, n = 6, read-out: AUC(inf) geometric mean (%CV)): 1590 ng·h/mL; Cmax ([1]; SAD day 1, 50 mg): 185 ng/mL; Tmax ([1]; SAD day 1, 50 mg, n = 6, read-out: Tmax median (min, max)): 1 h; AUC(0-t) ([1]; SAD day 1, 100 mg): 3000 ng·h/mL; AUC(0-inf) ([1]; SAD day 1, 100 mg, n = 6, read-out: AUC(inf) geometric mean (%CV)): 3020 ng·h/mL; Cmax ([1]; SAD day 1, 100 mg): 311 ng/mL; Tmax ([1]; SAD day 1, 100 mg, n = 6, read-out: Tmax median (min, max)): 1.5 h; AUC(0-t) ([1]; SAD day 1, 300 mg): 11300 ng·h/mL; AUC(0-inf) ([1]; SAD day 1, 300 mg, n = 6, read-out: AUC(inf) geometric mean (%CV)): 11400 ng·h/mL; Cmax ([1]; SAD day 1, 300 mg): 1080 ng/mL; Tmax ([1]; SAD day 1, 300 mg, n = 6, read-out: Tmax median (min, max)): 1.02 h; AUC(0-t) ([1]; SAD day 1, 900 mg): 28000 ng·h/mL; AUC(0-inf) ([1]; SAD day 1, 900 mg, n = 6, read-out: AUC(inf) geometric mean (%CV)): 28100 ng·h/mL; Cmax ([1]; SAD day 1, 900 mg): 1880 ng/mL; Tmax ([1]; SAD day 1, 900 mg, n = 6, read-out: Tmax median (min, max)): 2 h; Accumulation (accumulation index for AUC) ([2]; MAD 25-350 mg QD): minimal to modest accumulation; AI_AUC geometric mean (%CV) ([2]; AUC(TAU) day 14 / day 1, 25 mg QD): 1.57 (22); AI_AUC geometric mean (%CV) ([2]; AUC(TAU) day 14 / day 1, 75 mg QD): 1.23 (31); AI_AUC geometric mean (%CV) ([2]; AUC(TAU) day 14 / day 1, 200 mg QD): 1.23 (40); AI_AUC geometric mean (%CV) ([2]; AUC(TAU) day 14 / day 1, 350 mg QD): 0.984 (32); AUC [2, 3]: 539 ng·h/mL; Cmax [2, 3]: 56 ng/mL; concentration at 14 day [2, 3]: 7.85 ng/mL; Tmax [2, 3]: 2 h; half-life ([2]; MAD day 14, 25 mg QD): 10.9 h; AUC ([2]; MAD day 14, 75 mg QD): 2470 ng·h/mL; Cmax ([2]; MAD day 14, 75 mg QD): 281 ng/mL; concentration at 14 day ([2]; MAD day 14, 75 mg QD): 27.9 ng/mL; half-life ([2]; MAD day 14, 75 mg QD): 10.7 h; Tmax ([2]; MAD day 14, 75 mg QD): 2 h; AUC ([2]; MAD day 14, 200 mg QD): 5530 ng·h/mL; Cmax ([2]; MAD day 14, 200 mg QD): 592 ng/mL; concentration at 14 day ([2]; MAD day 14, 200 mg QD): 67.6 ng/mL; half-life ([2]; MAD day 14, 200 mg QD): 11 h; Tmax ([2]; MAD day 14, 200 mg QD): 2 h; AUC ([2]; MAD day 14, 350 mg QD): 10700 ng·h/mL; Cmax ([2]; MAD day 14, 350 mg QD): 1020 ng/mL; concentration at 14 day ([2]; MAD day 14, 350 mg QD): 166 ng/mL; half-life ([2]; MAD day 14, 350 mg QD): 10.2 h; Tmax ([2]; MAD day 14, 350 mg QD): 1.5 h

Reference: publication PMC5423977, “Safety, pharmacokinetics, and pharmacodynamics of BMS-986142, a novel reversible BTK inhibitor, in healthy participants” (European Journal of Clinical Pharmacology, 2017)
